The first experiment has as its target T1, human kinase Mps-1 (Homo sapiens, UniProt P33981).
T1 construct: N-terminally GST-tagged human full length recombinant Mps-1 kinase; GST (N); purchased Invitrogen, Karslruhe, Germany PV4071
T1 sequence (P33981 1-857): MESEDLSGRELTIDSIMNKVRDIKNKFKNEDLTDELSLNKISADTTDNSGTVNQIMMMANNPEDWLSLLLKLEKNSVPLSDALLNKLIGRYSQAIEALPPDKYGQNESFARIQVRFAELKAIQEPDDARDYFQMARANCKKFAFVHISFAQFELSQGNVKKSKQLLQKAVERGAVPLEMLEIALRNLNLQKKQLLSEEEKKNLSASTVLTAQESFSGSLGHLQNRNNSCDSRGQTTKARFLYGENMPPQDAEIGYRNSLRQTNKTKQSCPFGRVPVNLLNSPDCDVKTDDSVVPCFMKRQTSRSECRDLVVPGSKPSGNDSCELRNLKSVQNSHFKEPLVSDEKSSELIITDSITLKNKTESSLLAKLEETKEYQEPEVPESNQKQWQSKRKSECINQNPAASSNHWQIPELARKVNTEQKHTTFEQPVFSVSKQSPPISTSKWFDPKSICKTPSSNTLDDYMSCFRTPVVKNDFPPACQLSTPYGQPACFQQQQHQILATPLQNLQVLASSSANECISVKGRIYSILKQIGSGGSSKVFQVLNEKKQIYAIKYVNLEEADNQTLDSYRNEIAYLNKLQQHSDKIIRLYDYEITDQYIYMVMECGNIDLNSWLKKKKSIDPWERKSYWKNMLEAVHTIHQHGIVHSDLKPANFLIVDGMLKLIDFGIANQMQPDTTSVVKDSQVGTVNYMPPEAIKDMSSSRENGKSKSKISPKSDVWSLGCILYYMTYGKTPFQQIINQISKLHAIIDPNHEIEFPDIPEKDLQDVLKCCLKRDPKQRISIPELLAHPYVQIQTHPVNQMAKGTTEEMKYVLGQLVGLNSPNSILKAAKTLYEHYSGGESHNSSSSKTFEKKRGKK
The experiment is described as follows: Mps-1 kinase assay (TR-FRET). Format: biochemical. As to conditions: Mps1 IC50 [nM], N-terminally GST-tagged human full length recombinant Mps-1; 10 μM ATP; 1 μM biotinylated peptide substrate; 60 min at 22° C.
On to `O=C(NC1CC1)c1ccc(-c2cnc3c(NCCc4ccccc4)nccn23)cc1` [Example 7-9, N-cyclopropyl-4-{8-[(2-phenylethyl)amino]imi-dazo[1,2-a]pyrazin-3-yl}benzamide], for which the IC50 – broadly, the concentration needed to halve the response being measured – is 47.7 nM. As for `Cc1cc(-c2cnc3c(NCCCN4CCCC4=O)nccn23)ccc1C(=O)NC1CC1` [Example 7-95, N-cyclopropyl-2-methyl-4-(8-{[3-(2-oxopyrrolidin-1-yl)propyl]amino}imi-dazo[1,2-a]pyrazin-3-yl)benzamide], the IC50 is 562 nM. Still for that read-out and setting: next, `O=C(NC1CC1)c1ccc(-c2cnc3c(NCCO)nccn23)cc1O` [Example 7-70, N-cyclopropyl-2-hydroxy-4-{8-[(2-hydroxyethyl)amino]imi-dazo[1,2-a]pyrazin-3-yl}benzamide]: 414 nM.

With `O=C(NC1CC1)c1ccc(-c2cnc3c(NCCCN4CCOCC4)nccn23)cc1` [Example 7-5, N-cyclopropyl-4-(8-{[3-(morpholin-4-yl)propyl]amino}imi-dazo[1,2-a]pyrazin-3-yl)benzamide], the IC50 was 328 nM. Consider `O=C(NC1CC1)c1ccc(-c2cnc3c(NCCCO)nccn23)cc1Cl` [Example 7-43, 2-chloro-N-cyclopropyl-4-{8-[(3-hydroxypropyl)amino]imi-dazo[1,2-a]pyrazin-3-yl}benzamide], for which the IC50 stood at 430 nM. The same measure, in the same setting: next, `Cc1cc(-c2cnc3c(NCC(C)C)nccn23)cc(C)c1C(=O)NC1CC1` [Example 1-2, N-cyclopropyl-2,6-dimethyl-4-{8-[(2-methylpropyl)amino]imi-dazo[1,2-a]pyrazin-3-yl}benzamide]: 1230 nM; `COc1ccccc1CNc1nccn2c(-c3ccc(C(=O)NC4CC4)cc3)cnc12` [Example 4-8, N-cyclopropyl-4-{8-[(2-methoxybenzyl)amino]imi-dazo[1,2-a]pyrazin-3-yl}benzamide]: 85.5 nM; `Cc1cc(-c2cnc3c(NCc4ccc(Cl)s4)nccn23)ccc1C(=O)NC1CC1` [Example 7-123, 4-(8-{[(5-chlorothiophen-2-yl)methyl]amino}imi-dazo[1,2-a]pyrazin-3-yl)-N-cyclopropyl-2-methylbenzamide]: 22.5 nM. The same measure, in the same setting: next, `Cc1cc(-c2cnc3c(NCCCO)nccn23)ccc1C(=O)NC1CC1` [Example 7-104, N-cyclopropyl-4-{8-[(3-hydroxypropyl)amino]imi-dazo[1,2-a]pyrazin-3-yl}-2-methylbenzamide]: 124 nM; `O=C(NC1CC1)c1ccc(-c2cnc3c(NCCCCO)nccn23)cc1Cl` [Example 7-39, 2-chloro-N-cyclopropyl-4-{8-[(4-hydroxybutyl)amino]imi-dazo[1,2-a]pyrazin-3-yl}benzamide]: 239 nM. In the case of `Cc1cc(-c2cnc3c(NCc4cccnc4)nccn23)ccc1C(=O)NC1CC1` [Example 7-108, N-cyclopropyl-2-methyl-4-{8-[(pyridin-3-ylmethyl)amino]imi-dazo[1,2-a]pyrazin-3-yl}benzamide], the IC50 came to 123 nM.

For the compound `COCCCNc1nccn2c(-c3ccc(C(=O)NC4CC4)cc3)cnc12` [Example 7-3, N-cyclopropyl-4-{8-[(3-methoxypropyl)amino]imi-dazo[1,2-a]pyrazin-3-yl}benzamide], the IC50 stood at 95.8 nM. `Cc1cc(-c2cnc3c(NCCC#N)nccn23)ccc1C(=O)NC1CC1` [Example 7-111, 4-{8-[(2-cyanoethyl)amino]imi-dazo[1,2-a]pyrazin-3-yl}-N-cyclopropyl-2-methylbenzamide]: the IC50 was determined as 49.7 nM. The same measure, in the same setting: next, `COCCCNc1nccn2c(-c3ccc(C(=O)NC4CC4)c(Cl)c3)cnc12` [Example 7-58, 2-chloro-N-cyclopropyl-4-{8-[(3-methoxypropyl)amino]imi-dazo[1,2-a]pyrazin-3-yl}benzamide]: 485 nM.

For the compound `Cc1cc(-c2cnc3c(NCC(C)O)nccn23)ccc1C(=O)NC1CC1` (stereo not drawn) [Example 7-115, N-cyclopropyl-4-{8-[(2-hydroxypropyl)amino]imi-dazo[1,2-a]pyrazin-3-yl}-2-methylbenzamide], the IC50 worked out at 101 nM. Still for that read-out and setting: next, `O=C(NC1CC1)c1ccc(-c2cnc3c(NCC(F)(F)C(F)(F)F)nccn23)cc1Cl` [Example 7-53, 2-chloro-N-cyclopropyl-4-{8-[(2,2,3,3,3-pentafluoropropyl)amino]imi-dazo[1,2-a]pyrazin-3-yl}benzamide]: 106 nM; `Cn1ccc(CNc2nccn3c(-c4ccc(C(=O)NC5CC5)c(Cl)c4)cnc23)n1` [Example 7-60, 2-chloro-N-cyclopropyl-4-(8-{[(1-methyl-1H-pyrazol-3-yl)methyl]amino}imi-dazo[1,2-a]pyrazin-3-yl)benzamide]: 767 nM.

Staying with this experiment, now noted: N-terminally GST-tagged human full length recombinant Mps-1; 10 μM ATP; 1 μM biotinylated peptide substrate; 60 min at 22° C.; read-out: Mps1 IC50.
For `CN(C)CCCNc1nccn2c(-c3ccc(C(=O)NC4CC4)cc3)cnc12` [Example 7-6, N-cyclopropyl-4-(8-{[3-(dimethylamino)propyl]ami-nono}imidazo[1,2-a]pyrazin-3-yl)benzamide], the IC50 is 1260 nM. Still for that read-out and setting: the figure for “2-chloro-N-cyclopropyl-4- {8-[(2- sulfamoylethyl)amino]imi- dazo[1,2-a]pyrazin-3- yl}benzamide [Example 7-67]” is 250 nM; for `O=C(NC1CC1)c1ccc(-c2cnc3c(NCc4ccccc4)nccn23)cc1O` [Example 7-75, 4-[8-(benzylamino)imidazo[1,2-a]pyrazin-3-yl]-N-cyclopropyl-2-hydroxybenzamide] it is 2030 nM. The same measure, in the same setting: next, `COC(=O)CCNc1nccn2c(-c3ccc(C(=O)NC4CC4)cc3)cnc12` [Example 4-6, methyl N-{3-[4-(cyclopropylcarbamoyl)phen-yl]imidazo[1,2-a]pyrazin-8-yl}-beta-alaninate]: 74.9 nM; `CCNc1nccn2c(-c3ccc(C(=O)NC4CC4)cc3)cnc12` [Example 7-10, N-cyclopropyl-4-[8-(ethylamino)imidazo[1,2-a]pyrazin-3-yl]benzamide]: 115 nM. On the same count and under the same terms, next, `CCCNc1nccn2c(-c3ccc(C(=O)NC4CC4)c(O)c3)cnc12` [Example 7-69, N-cyclopropyl-2-hydroxy-4-[8-(propylamino)imidazo[1,2-a]pyrazin-3-yl]benzamide]: 23.3 nM; `CC(=O)NCCNc1nccn2c(-c3ccc(C(=O)NC4CC4)c(Cl)c3)cnc12` [Example 7-45, 4-(8-{[2-(acetylamino)ethyl]ami-no)imidazo[1,2-a]pyrazin-3-yl)-2-chloro-N-cyclopropylbenzamide]: 1750 nM; `Cc1cc(C(=O)NC2CC2)ccc1-c1cnc2c(NCC(C)C)nccn12` [Example 1-1, N-cyclopropyl-3-methyl-4-{8-[(2-methylpropyl)amino]imidazo[1,2-a]pyrazin-3-yl}benzamide]: 52.4 nM. For the compound `CCNc1nccn2c(-c3ccc(C(=O)NC4CC4)c(C)c3)cnc12` [Example 7-103, N-cyclopropyl-4-[8-(ethylamino)imidazo[1,2-a]pyrazin-3-yl]-2-methylbenzamide], the IC50 was determined as 145 nM.

As to `O=C(NC1CC1)c1ccc(-c2cnc3c(NCc4ccccn4)nccn23)cc1Cl` [Example 7-47, 2-chloro-N-cyclopropyl-4-{8-[(pyridin-2-ylmethyl)amino]imidazo[1,2-a]pyrazin-3-yl}benzamide], the IC50 is 1190 nM. Still for that read-out and setting: next, `O=C(NC1CC1)c1ccc(-c2cnc3c(NCCN4CCCCC4)nccn23)cc1` [Example 7-8, N-cyclopropyl-4-(8-{[2-(piperidin-1-yl)ethyl]amino}imidazo[1,2-a]pyrazin-3-yl)benzamide]: 1950 nM; `O=C(NC1CC1)c1ccc(-c2cnc3c(NCC4CCCO4)nccn23)cc1Cl` (stereo not drawn) [Example 7-34, 2-chloro-N-cyclopropyl-4-{8-[(tetrahydrofuran-2-ylmethyl)amino]imidazo[1,2-a]pyrazin-3-yl}benzamide]: 211 nM; “4-{8-[(3-amino-3- oxopropyl)amino]imi- dazo[1,2-a]pyrazin-3-yl}-N- cyclopropylbenzamide [Example 7-25]”: 1190 nM. Still for that read-out and setting: the figure for `CCNc1nccn2c(-c3ccc(C(=O)NC4CC4)c(Cl)c3)cnc12` [Example 7-42, 2-chloro-N-cyclopropyl-4-[8-(ethylamino)imidazo[1,2-a]pyrazin-3-yl]benzamide] is 17000 nM; for `CS(=O)(=O)CCCNc1nccn2c(-c3ccc(C(=O)NC4CC4)cc3)cnc12` [Example 4-2, N-cyclopropyl-4-(8-{[3-(methylsulfonyl)propyl]amino}imidazo[1,2-a]pyrazin-3-yl)benzamide] it is 87.4 nM; for `CC(=O)NCCNc1nccn2c(-c3ccc(C(=O)NC4CC4)cc3)cnc12` [Example 7-16, 4-(8-{[2-(acetylamino)ethyl]ami-no}imidazo[1,2-a]pyrazin-3-yl)-N-cyclopropylbenzamide] it is 961 nM.

The record behind these values is US20130303532A1, “IMIDAZOPYRAZINES FOR USE AS MPS-1 AND TKK INHIBITORS IN THE TREATMENT HYPERPROLIFERATIVE DISORDERS” (BAYER INTELLECTUAL PROPERTY GmbH, priority 2010, published 2013).
